{"source": "patent US20240122214A1", "about": "“COMPOSITIONS, METHOD OF MAKING AND METHOD OF USE THEREOF” (EPC NATURAL PRODUCTS CO., LTD, priority 2014, published 2024)", "key": {"[1]": {"test_system": "glucose transport across the Caco-2 cell monolayer", "assay": "Glucose transport assay in Caco-2 trans-well model (Example 2)", "format": "cell-based, Human", "settings": "0-3 h, result in words", "protocol": "Caco-2 cells were seeded on 0.4 μm trans-well inserts for monolayer formation and fast differentiation. On day 5, glucose transport across the cell monolayer was performed. […] Samples were collected from the basolateral compartment (HEPES buffer) after 0, 0.5, 1, 1.5, 2 and 3 hours. Glucose concentrations of the samples were measured by HPLC. […] Error bars are based on the standard error of the mean (n=2). *p<0.05 indicates a significant difference from the control (two-way ANOVA, Tukey's multiple comparison test).\nCaco-2 (165,000 cells/insert) cells were seeded on 0.4 μm trans-well inserts for monolayer formation and fast differentiation (enterocyte differentiation medium). On day 5, glucose transport across the cell monolayer was performed. […] Samples were collected from the basolateral compartment (HEPES buffer) after 0, 0.5, 1, 1.5, 2 and 3 hours. Glucose and xylitol concentrations of the samples were measured by HPLC. Cell layer integrity was confirmed by TEER measurements (Millicell ERS-2 Voltometer) at each sampling time point."}, "[2]": {"test_system": "glucose transport across the Caco-2 cell monolayer", "assay": "Glucose transport assay in Caco-2 trans-well model (Example 1)", "format": "cell-based", "settings": "Homo sapiens, 13.5 g/L glucose apical, phloretin 100 mg/L, read-out: Glucose transport compared to untreated control [% of control]", "protocol": "Caco-2 cells were seeded on 0.4 μm trans-well inserts for monolayer formation and fast differentiation. On day 5, glucose transport across the cell monolayer was performed. Therefore, cell culture medium containing 13.5 g/L glucose and 1 g/L xylitol with or without the indicated dilutions of extracts or phloretin (100 mg/L) was placed as donor solution onto the apical compartment. Samples were collected from the basolateral compartment (HEPES buffer) after 0, 0.5, 1, 1.5, and 2 hours. Glucose concentrations of the samples were measured by HPLC.\nCaco-2 cells were seeded on 0.4 1.tm trans-well inserts for monolayer formation and fast differentiation (enterocyte differentiation medium). On day 5, glucose transport across the cell monolayer was performed. Therefore, cell culture medium containing 13.5 g/L glucose and 1 g/L xylitol with or without the indicated concentrations of rubusoside plant extract or phloretin was placed as donor solution onto the apical compartment. Samples were collected from the basolateral compartment (HEPES buffer) after 0, 0.5, 1, 1.5, and 2 hours. Glucose and xylitol concentrations of the samples were measured by HPLC. Cell layer integrity was confirmed by TEER measurements (Millicell ERS-2 Voltometer) at each sampling time point."}, "Caco-2 cell layers": {"test_system": "Caco-2 cell layers", "assay": "Caco-2 barrier integrity: TEER and xylitol passage (Example 2)", "format": "cell-based, Human", "settings": "1 g/L xylitol reference", "protocol": "Caco-2 cells were seeded on 0.4 μm trans-well inserts for monolayer formation and fast differentiation. […] Therefore, cell culture medium containing 13.5 g/L glucose and 1 g/L xylitol with or without the indicated concentrations of rubusoside plant extract or phloretin was placed as donor solution onto the apical compartment. The effect on barrier integrity was analyzed by measuring TEER after 0, 0.5, 1, 1.5, 2 and 3 hours (Panels A, C and E) and by including xylitol as a reference substance for the paracellular permeability of the cell layer (Panels B, D and F). Xylitol concentrations of the samples taken were measured by HPLC. Error bars are based on the standard error of the mean (n=2).\nCaco-2 (165,000 cells/insert) cells were seeded on 0.4 μm trans-well inserts for monolayer formation and fast differentiation (enterocyte differentiation medium). […] Briefly, cell culture medium containing 13.5 g/L glucose and 1 g/L xylitol with or without the indicated concentrations of rubusoside plant extract or phloretin was placed as donor solution onto the apical compartment. Samples were collected from the basolateral compartment (HEPES buffer) after 0, 0.5, 1, 1.5, 2 and 3 hours. Glucose and xylitol concentrations of the samples were measured by HPLC. Cell layer integrity was confirmed by TEER measurements (Millicell ERS-2 Voltometer) at each sampling time point."}, "[3]": {"settings": "depends on the tested concentration compared with sucrose; cited from earlier work"}}, "note": "Where two headings read alike, the source gives them in different places."}
{"compound": "O=C(CCc1ccc(O)cc1)c1c(O)cc(O)cc1O", "note": "[Phloretin, phloretin]", "values": [{"measurement": "inhibitory effect on glucose transport", "setting": "[1]", "value": "strongly reduced glucose absorption"}, {"measurement": "activity at 100 µg/mL", "setting": "[2]; 0.5 h", "value": 36, "unit": "%"}, {"measurement": "activity at 100 µg/mL", "setting": "[2]; 1.0 h", "value": 54, "unit": "%"}, {"measurement": "xylitol permeability of treated cell layers", "setting": "Caco-2 cell layers", "value": "highest"}]}
{"compound": "O=S(=O)([O-])NC1CCCCC1.[Na+]", "note": "[sodium cyclamate]", "values": [{"measurement": "times sweeter than sucrose", "setting": "[3]", "value": "about 30 times"}]}
{"compound": "OC[C@H]1O[C@H](O[C@]2(CCl)O[C@H](CCl)[C@@H](O)[C@@H]2O)[C@H](O)[C@@H](O)[C@H]1Cl", "note": "[sucralose]", "values": [{"measurement": "times sweeter than sucrose", "setting": "[3]", "value": "about 600 times"}]}
{"compound": "thaumatin", "values": [{"measurement": "times sweeter than sucrose", "setting": "[3]", "value": "about 2000 times"}]}
